According to patent US5811454A (priority 1993, dated 1998):
Entries after “also recorded” stand apart in the source; their conditions may differ. Read-outs that look alike come from different tables or passages of the source.

How the values were obtained:
[1] = ph stat, naoh titration
[2] = tested on: colorectal cell line LS174T; experiment: cells; details: Homo sapiens, 1 h
[3] = tested on: colorectal cell line LS174T
[4] = target: CPG2 (Pseudomonas sp., UniProt P06621); format: biochemical, bacterial
Chain of CPG2 (P06621 23-415): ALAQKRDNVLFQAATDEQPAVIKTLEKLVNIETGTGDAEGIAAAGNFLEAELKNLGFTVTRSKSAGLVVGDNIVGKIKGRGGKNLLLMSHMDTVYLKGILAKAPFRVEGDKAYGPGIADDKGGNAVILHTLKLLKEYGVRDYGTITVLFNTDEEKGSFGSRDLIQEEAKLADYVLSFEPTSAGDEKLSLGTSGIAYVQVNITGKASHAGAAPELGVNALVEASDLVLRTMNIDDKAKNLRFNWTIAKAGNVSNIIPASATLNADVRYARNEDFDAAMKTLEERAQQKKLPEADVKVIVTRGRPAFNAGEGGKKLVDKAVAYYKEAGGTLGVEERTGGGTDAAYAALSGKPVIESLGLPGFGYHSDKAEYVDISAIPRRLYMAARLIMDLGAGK

## CS(=O)(=O)OCCN(CCCl)c1ccc(C(=O)N[C@@H](CCC(=O)O)C(=O)O)cc1 [Compound 26, 4[(2chloroethyl)[2(mesyloxy)ethyl]amino]benzoylL-glutamic acid, reference compound]
[1]
  Prodrug t1/2 (chemical half-life): 984 min
[2]; read-out: Prodrug + CPG2 IC50
  IC50: 200 µM
[2]; read-out: Prodrug IC50
  IC50: > 800 µM
[3]
  Prodrug activity (increased cytotoxicity on conversion by CPG2): substantial prodrug activity

## O=C(O)CC[C@H](NC(=O)c1ccc(N(CCCl)CCCl)cc1F)C(=O)O [Compound 9, 2-fluoro, 4-[bis(2-chloroethyl)amino]benzoyl-L-glutamic acid]
[3]; read-out: Prodrug + CPG2 IC50
  IC50: > 800 µM
[3]; read-out: Prodrug IC50
  IC50: > 800 µM
[4]
  Ability of prodrug to act as CPG2 substrate (in words): good substrates
  kcat: 462 S^-1

## CS(=O)(=O)OCCN(CCCl)c1ccc(C(=O)N[C@@H](CCC(=O)O)C(=O)O)c(F)c1 [Compound 8, 2-fluoro, 4-[(2-chloroethyl)[2-(mesyloxy)ethyl]amino]benzoyl-L-glutamic acid]
[2]; read-out: Prodrug + CPG2 IC50
  IC50: > 800 µM
[2]; read-out: Prodrug IC50
  IC50: > 800 µM
[4]
  Ability of prodrug to act as CPG2 substrate (in words): good substrates

## CS(=O)(=O)OCCN(CCCl)c1ccc(C(=O)O)c(F)c1 [Compound 11]
[1]
  Active Drug t1/2 (chemical half-life): 192 min
[2]; read-out: Active Drug IC50
  IC50: > 800 µM

## CS(=O)(=O)OCCN(CCCl)c1ccc(C(=O)O)cc1F [Compound 23]
[1]
  Active Drug t1/2 (chemical half-life): 2.4 min
[2]; read-out: Active Drug IC50
  IC50: 280 µM

## CS(=O)(=O)OCCN(CCOS(C)(=O)=O)c1ccc(C(=O)N[C@@H](CCC(=O)O)C(=O)O)c(F)c1 [Compound 7, 2-fluoro, 4-[bis-[2-(mesyloxy)ethyl]amino]benzoyl-L-glutamic acid]
[2]; read-out: Prodrug + CPG2 IC50
  IC50: > 800 µM
[2]; read-out: Prodrug IC50
  IC50: > 800 µM
[4]
  Ability of prodrug to act as CPG2 substrate (in words): such a poor substrate that it was not possible to measure its kinetics; also recorded: very poor substrate

## CS(=O)(=O)OCCN(CCOS(C)(=O)=O)c1ccc(C(=O)N[C@@H](CCC(=O)O)C(=O)O)cc1F [Compound 19]
[2]; read-out: Prodrug + CPG2 IC50
  IC50: 480 µM
[2]; read-out: Prodrug IC50
  IC50: > 800 µM
[4]
  Ability of prodrug to act as CPG2 substrate (in words): good substrates

## CS(=O)(=O)OCCN(CCCl)c1ccc(C(=O)O)cc1 [Compound 29, reference compound]
[1]
  Active Drug t1/2 (chemical half-life): 58 min
[2]; read-out: Active Drug IC50
  IC50: 185 µM

## CS(=O)(=O)OCCN(CCOS(C)(=O)=O)c1ccc(C(=O)O)cc1F [Compound 22]
[1]
  Active Drug t1/2 (chemical half-life): 1.9 min
[2]; read-out: Active Drug IC50
  IC50: 480 µM

## CS(=O)(=O)OCCN(CCCl)c1ccc(C(=O)N[C@@H](CCC(=O)O)C(=O)O)cc1F [Compound 20, 3-fluoro, 4-[(2-chloroethyl)[2-(mesyloxy)ethyl]amino]benzoyl-L-glutamic acid]
[1]
  Prodrug t1/2 (chemical half-life): 122 min
[2]; read-out: Prodrug + CPG2 IC50
  IC50: 350 µM
[2]; read-out: Prodrug IC50
  IC50: > 800 µM
[4]
  Ability of prodrug to act as CPG2 substrate (in words): good substrates

## CS(=O)(=O)OCCN(CCOS(C)(=O)=O)c1ccc(C(=O)N[C@@H](CCC(=O)O)C(=O)O)cc1 [Compound 25, reference compound]
[1]
  Prodrug t1/2 (chemical half-life): 42 min

## O=C(O)CC[C@H](NC(=O)c1ccc(N(CCCl)CCCl)c(F)c1)C(=O)O [Compound 21, 3-fluoro, 4-[bis(2-chloroethyl) ,amino] benzoyl-L-glutamic acid]
[3]; read-out: Prodrug + CPG2 IC50
  IC50: 390 µM
[3]; read-out: Prodrug IC50
  IC50: > 800 µM
[4]
  Ability of prodrug to act as CPG2 substrate (in words): good substrates
  kcat: 1028 S^-1
